This passage reports IC50 results from US10287295B2, “TGF-β inhibitors” (Rigel Pharmaceuticals, Inc., priority 2015, dated 2019).

Experiment [1] relates to GDF8 signaling (GDF pSMAD, MPC11). Kind of experiment: AlphaScreen SureFire SMAD3 (p-Ser423/425) assay, inhibition of GDF8 signaling. Format: cell-based. The settings on record: Mus musculus, MPC-11, inhibition of GDF8 signaling, p-SMAD3 readout. On the technique in general: Bead proximity is the source of the signal in Alpha formats.
Experiment [2] has as its system TGF-β signaling (TGF-β pSMAD, MPC-11). Kind of experiment: AlphaScreen SureFire SMAD3 (p-Ser423/425) assay, inhibition of TGF-β signaling. In kind it is cell-based. Conditions: Mus musculus, MPC-11, inhibition of TGF-β signaling, p-SMAD3 readout.

As to `CCc1nc(-c2ccc(F)cc2)c(-c2ccc3ncnn3c2)[nH]1` [Compound 121, 6-(2-Ethyl-4-(4-fluorophenyl)-1H-imidazol-5-yl)-[1,2,4]triazolo[1,5-a]pyridine], the results for the IC50 in experiment [1] and in experiment [2] were 460 nM and 2070 nM, respectively.

For the molecule `Fc1cccc(-c2nc[nH]c2-c2ccc3ncsc3c2)c1` [Compound 30, 6-(4-(3-Fluorophenyl)-1H-imidazol-5-yl)benzo[d]thiazole], the IC50 in experiment [1] turned out to be 270 nM; in experiment [2] it was 320 nM.

For `CCc1nc(-c2cccc(Cl)c2)c(-c2ccc3ncnn3c2)[nH]1` [Compound 125, 6-(4-(3-Chlorophenyl)-2-ethyl-1H-imidazol-5-yl)-[1,2,4]triazolo[1,5-a]pyridine], the IC50 came to 50 nM in experiment [1] and 120 nM in experiment [2].

With `Cc1nc(-c2cc(F)cc(F)c2)c(-c2ccc3[nH]ncc3c2)[nH]1` [Compound 148, 5-(4-(3,5-Difluorophenyl)-2-methyl-1H-imidazol-5-yl)-1H-indazole], the IC50 in experiment [1] is 730 nM; in experiment [2] it was 2840 nM.

For the molecule `Cc1cccc(-c2ncn(C)c2-c2ccc3nccnc3c2)c1` [Compound 47, 6-(1-Methyl-4-(m-tolyl)-1H-imidazol-5-yl)quinoxaline], the results for the IC50 in experiment [1] and in experiment [2] were 180 nM and 660 nM, respectively.

With `CCc1nc(-c2cccc(F)c2)c(-c2ccc3ncnn3c2)[nH]1` [Compound 136, 6-(2-Ethyl-4-(3-fluorophenyl)-1H-imidazol-5-yl)-[1,2,4]triazolo[1,5-a]pyridine], the IC50 in experiment [1] came out at 750 nM; in experiment [2] it was 2300 nM.

As to `Cc1cccc(-c2nc(C)n(C)c2-c2ccc3ncn(C)c3c2)c1` [Compound 58, 6-(1,2-Dimethyl-4-(m-tolyl)-1H-imidazol-5-yl)-1-methyl-1H-benzo[d]imidazole], the IC50 in experiment [1] is 990 nM; in experiment [2], 9640 nM.

`CCc1nc(-c2ccc(F)c(F)c2)c(-c2ccc3ncsc3c2)[nH]1` [Compound 133, 6-(4-(3,4-Difluorophenyl)-2-ethyl-1H-imidazol-5-yl)benzo[d]thiazole]: the values for the IC50 in experiment [1] and in experiment [2] were 360 nM and 2210 nM, respectively.

For the molecule `Cc1nc(-c2ccc(F)c(C)c2)c(-c2ccc3nccnc3c2)[nH]1` [Compound 76, 6-(4-(4-Fluoro-3-methylphenyl)-2-methyl-1H-imidazol-5-yl)quinoxaline], the IC50 in experiment [1] was 190 nM; in experiment [2] it was 1210 nM.

Regarding `Cc1cccc(-c2ncn(C)c2-c2ccc3ncccc3c2)c1` [Compound 46, 6-(1-Methyl-4-(m-tolyl)-1H-imidazol-5-yl)quinoline], the IC50 was found to be 260 nM in experiment [1] and 1680 nM in experiment [2].

With `Fc1ccc(-c2nc[nH]c2-c2ccc3[nH]ncc3c2)cc1F` [Compound 31, 5-(4-(3,4-Difluorophenyl)-1H-imidazol-5-yl)-1H-indazole], the IC50 in experiment [1] amounted to 20 nM; in experiment [2] it was 90 nM.

Regarding `CCc1nc(-c2cc(F)cc(F)c2)c(-c2ccc3ncsc3c2)[nH]1` [Compound 149, 6-(4-(3,5-Difluorophenyl)-2-ethyl-1H-imidazol-5-yl)benzo[d]thiazole], the IC50 in experiment [1] came to 720 nM; in experiment [2] it was 3220 nM.

In the case of `CCc1nc(-c2cc(F)cc(Cl)c2)c(-c2ccc3nccnc3c2)[nH]1` [Compound 141, 6-(4-(3-Chloro-5-fluorophenyl)-2-ethyl-1H-imidazol-5-yl)quinoxaline], the values for the IC50 in experiment [1] and in experiment [2] were 660 nM and 2910 nM, respectively.

On to `CCc1nc(-c2cccc(Cl)c2)c(-c2ccc3nccn3c2)[nH]1` [Compound 127, 6-(4-(3-Chlorophenyl)-2-ethyl-1H-imidazol-5-yl)imidazo[1,2-a]pyridine], for which the figures for the IC50 in experiment [1] and in experiment [2] were 190 nM and 570 nM, respectively.

Consider `Cn1cnc(-c2ccc(F)cc2)c1-c1ccc2ncn(C)c2c1` [Compound 50, 6-(4-(4-Fluorophenyl)-1-methyl-1H-imidazol-5-yl)-1-methyl-1H-benzo[d]imidazole], for which the IC50 in experiment [1] stood at 1020 nM; in experiment [2] it was 1870 nM.

In the case of `Cc1nc(-c2cccc(Cl)c2)c(-c2ccc3ncnn3c2)[nH]1` [Compound 103, 6-(4-(3-Chlorophenyl)-2-methyl-1H-imidazol-5-yl)-[1,2,4]triazolo[1,5-a]pyridine], the results for the IC50 in experiment [1] and in experiment [2] were 130 nM and 690 nM, respectively.

For the molecule `Cc1nc(-c2cc(F)c(F)c(F)c2)c(-c2ccc3nccnc3c2)[nH]1` [Compound 96, 6-(2-Methyl-4-(3,4,5-trifluorophenyl)-1H-imidazol-5-yl)quinoxaline], the IC50 was 440 nM in experiment [1] and 2430 nM in experiment [2].

Take `Cc1cccc(-c2nc[nH]c2-c2ccc3nccn3c2)c1` [Compound 19, 6-(4-(m-Tolyl)-1H-imidazol-5-yl)imidazo[1,2-a]pyridine]: the IC50 amounted to 150 nM in experiment [1] and 730 nM in experiment [2].

For `Clc1cccc(-c2nc[nH]c2-c2ccc3[nH]ncc3c2)c1` [Compound 22, 5-(4-(3-Chlorophenyl)-1H-imidazol-5-yl)-1H-indazole], the figures for the IC50 in experiment [1] and in experiment [2] were 20 nM and 30 nM, respectively.

Take `Fc1ccc(-c2nc[nH]c2-c2ccc3cn[nH]c3c2)cc1F` [Compound 32, 6-(4-(3,4-Difluorophenyl)-1H-imidazol-5-yl)-1H-indazole]: the results for the IC50 in experiment [1] and in experiment [2] were 50 nM and 140 nM, respectively.

In the case of `Cc1cccc(-c2nc[nH]c2-c2ccc3[nH]ncc3c2)c1` [Compound 15, 5-(4-(m-Tolyl)-1H-imidazol-5-yl)-1H-indazole], the IC50 in experiment [1] was determined as 10 nM; in experiment [2], 60 nM.

With `COc1ccc(-c2ncn(C)c2-c2ccc3cn[nH]c3c2)cc1` [Compound 70, 6-(4-(4-Methoxyphenyl)-1-methyl-1H-imidazol-5-yl)-1H-indazole], the IC50 was found to be 700 nM in experiment [1] and 5220 nM in experiment [2].

As for `Nc1nc(-c2cccc(C(F)(F)F)c2)c(-c2ccc3nccnc3c2)s1` [Compound 180, 5-(quinoxalin-6-yl)-4-(3-(trifluoromethyl)phenyl)thiazol-2-amine], the figures for the IC50 in experiment [1] and in experiment [2] were 301 nM and 621 nM, respectively.

For the molecule `Cn1cnc(-c2ccc(F)c(F)c2)c1-c1ccc2ncn(C)c2c1` [Compound 66, 6-(4-(3,4-Difluorophenyl)-1-methyl-1H-imidazol-5-yl)-1-methyl-1H-benzo[d]imidazole], the values for the IC50 in experiment [1] and in experiment [2] were 520 nM and 980 nM, respectively.

For the molecule `Fc1ccc(-c2ncsc2-c2ccc3ncsc3c2)cc1` [Compound 181, 6-(4-(4-fluorophenyl)thiazol-5-yl)benzo[d]thiazole], the values for the IC50 in experiment [1] and in experiment [2] were 336 nM and 4550 nM, respectively.

Take `Fc1ccc(-c2nc[nH]c2-c2ccc3nccn3c2)cc1` [Compound 14, 6-(4-(4-Fluorophenyl)-1H-imidazol-5-yl)imidazo[1,2-a]pyridine]: the values for the IC50 in experiment [1] and in experiment [2] were 610 nM and 1820 nM, respectively.

On to `Fc1ccc(-c2nc[nH]c2-c2ccc3[nH]ncc3c2)cc1` [Compound 10, 5-(4-(4-Fluorophenyl)-1H-imidazol-5-yl)-1H-indazole], for which the IC50 in experiment [1] turned out to be 10 nM; in experiment [2], 60 nM.

With `Cc1cccc(-c2ncn(C)c2-c2ccc3[nH]ncc3c2)c1` [Compound 41, 5-(1-Methyl-4-(m-tolyl)-1H-imidazol-5-yl)-1H-indazole], the IC50 in experiment [1] came to 20 nM; in experiment [2], 60 nM.

With `CCc1nc(-c2ccc(F)c(F)c2)c(-c2ccc3cn[nH]c3c2)[nH]1` [Compound 131, 6-(4-(3,4-Difluorophenyl)-2-ethyl-1H-imidazol-5-yl)-1H-indazole], the IC50 in experiment [1] was 920 nM; in experiment [2], 3910 nM.

For the molecule `Nc1nc(-c2cccc(Cl)c2)c(-c2ccc3nccn3c2)s1` [Compound 164, 4-(3-chlorophenyl)-5-(imidazo[1,2-a]pyridin-6-yl)thiazol-2-amine], the IC50 was 66.3 nM in experiment [1] and 218 nM in experiment [2].

On to `Cc1cc(-c2nc[nH]c2-c2ccc3[nH]ncc3c2)ccc1F` [Compound 3, 5-(4-(4-Fluoro-3-methylphenyl)-1H-imidazol-5-yl)-1H-indazole], for which the IC50 in experiment [1] and in experiment [2] was 10 nM in each case.

As to `Cc1cccc(-c2ncn(C)c2-c2ccc3ncn(C)c3c2)c1` [Compound 43, 1-Methyl-6-(1-methyl-4-(m-tolyl)-1H-imidazol-5-yl)-1H-benzo[d]imidazole], the figures for the IC50 in experiment [1] and in experiment [2] were 190 nM and 530 nM, respectively.

As to `CCc1nc(-c2cc(C)cc(F)c2)c(-c2ccc3cn[nH]c3c2)[nH]1` [Compound 143, 6-(2-Ethyl-4-(3-fluoro-5-methylphenyl)-1H-imidazol-5-yl)-1H-indazole], the IC50 in experiment [1] was 450 nM; in experiment [2], 3140 nM.

On to `Cc1nc(-c2ccc(F)c(F)c2)c(-c2ccc3cn[nH]c3c2)[nH]1` [Compound 84, 6-(4-(3,4-Difluorophenyl)-2-methyl-1H-imidazol-5-yl)-1H-indazole], for which the values for the IC50 in experiment [1] and in experiment [2] were 320 nM and 2900 nM, respectively.

On to `Fc1ccc(-c2nc[nH]c2-c2ccc3cn[nH]c3c2)cc1` [Compound 11, 6-(4-(4-Fluorophenyl)-1H-imidazol-5-yl)-1H-indazole], for which the values for the IC50 in experiment [1] and in experiment [2] were 40 nM and 130 nM, respectively.

`CCc1nc(-c2ccc(F)c(C)c2)c(-c2ccc3ncsc3c2)[nH]1` [Compound 109, 6-(2-Ethyl-4-(4-fluoro-3-methylphenyl)-1H-imidazol-5-yl)benzo[d]thiazole]: the IC50 in experiment [1] was 150 nM; in experiment [2], 870 nM.

Take `Cc1nc(-c2ccc(F)cc2)c(-c2ccc3ncn(C)c3c2)[nH]1` [Compound 79, 6-(4-(4-Fluorophenyl)-2-methyl-1H-imidazol-5-yl)-1-methyl-1H-benzo[d]imidazole]: the IC50 in experiment [1] was found to be 110 nM; in experiment [2], 850 nM.

On to `Nc1nc(-c2cccc(F)c2)c(-c2ccc3[nH]ncc3c2)s1` [Compound 179, 4-(3-fluorophenyl)-5-(1H-indazol-5-yl)thiazol-2-amine], for which the figures for the IC50 in experiment [1] and in experiment [2] were 268 nM and 1280 nM, respectively.

The IC50 is the concentration that inhibits the measured activity by half. Read a high IC50 as lower potency.
